ChEMBL document CHEMBL1201862, “PubChem BioAssay data set” (2004)
The source made the active and inactive calls.

Experiments:
[1] = target: T1, DNA repair and recombination protein RAD54-like (Homo sapiens, UniProt Q92698); test: RAD54 Holliday junction migration blockers – biochemical, fluorescence, cherry-picked samples, dose series, confirmation (AID 651657); type: functional
T1 sequence (Q92698 whole entry): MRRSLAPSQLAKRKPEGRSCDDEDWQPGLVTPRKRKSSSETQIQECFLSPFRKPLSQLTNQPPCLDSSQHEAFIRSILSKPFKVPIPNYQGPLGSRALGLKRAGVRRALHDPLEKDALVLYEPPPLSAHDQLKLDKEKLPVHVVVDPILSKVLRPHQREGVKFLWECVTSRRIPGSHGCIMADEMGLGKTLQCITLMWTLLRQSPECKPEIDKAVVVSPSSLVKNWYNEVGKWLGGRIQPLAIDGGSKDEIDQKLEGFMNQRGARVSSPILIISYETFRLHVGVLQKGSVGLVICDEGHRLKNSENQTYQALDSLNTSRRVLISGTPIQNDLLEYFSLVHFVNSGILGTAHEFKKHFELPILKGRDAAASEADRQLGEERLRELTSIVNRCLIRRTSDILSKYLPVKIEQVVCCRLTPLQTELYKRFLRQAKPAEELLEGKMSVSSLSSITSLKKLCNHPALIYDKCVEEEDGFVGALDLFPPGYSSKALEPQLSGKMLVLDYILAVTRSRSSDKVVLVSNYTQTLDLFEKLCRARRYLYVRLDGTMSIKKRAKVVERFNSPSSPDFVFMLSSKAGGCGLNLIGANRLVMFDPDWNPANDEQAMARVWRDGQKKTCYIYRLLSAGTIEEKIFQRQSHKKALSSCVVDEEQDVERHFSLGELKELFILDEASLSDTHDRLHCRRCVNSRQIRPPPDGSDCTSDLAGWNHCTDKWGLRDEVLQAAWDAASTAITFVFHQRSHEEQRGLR

[2] = target: T2, DNA repair protein RAD52 homolog (Homo sapiens, UniProt P43351); type: functional, biochemical
T2 sequence (P43351 whole entry): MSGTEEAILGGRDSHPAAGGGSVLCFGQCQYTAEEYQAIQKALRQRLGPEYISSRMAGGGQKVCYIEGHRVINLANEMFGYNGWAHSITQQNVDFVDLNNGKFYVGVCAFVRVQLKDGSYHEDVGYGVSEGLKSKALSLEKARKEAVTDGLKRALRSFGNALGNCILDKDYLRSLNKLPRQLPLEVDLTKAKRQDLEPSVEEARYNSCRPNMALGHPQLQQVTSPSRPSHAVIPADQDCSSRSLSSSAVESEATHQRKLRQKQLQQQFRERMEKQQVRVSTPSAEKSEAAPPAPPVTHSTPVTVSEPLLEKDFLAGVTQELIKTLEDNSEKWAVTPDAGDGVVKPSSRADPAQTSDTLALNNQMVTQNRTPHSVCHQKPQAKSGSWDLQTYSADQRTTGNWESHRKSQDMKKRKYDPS

[3] = nonselective StAR promoter luciferase inhibitors – cell-based, luminescence, luciferase reporter, counter-screen for LRH-1 inverse agonist project, dose response (AID 651969); type: functional
Steroidogenic factor 1 = Steroidogenic factor 1 (Homo sapiens, UniProt Q13285); test: Counterscreen for inverse agonists of the liver receptor homolog-1 (LRH-1; NR5A2): Luminescence-based cell-based high throughput dose response assay to identify inverse agonists of the Steroidogenic Factor 1 Nuclear Receptor (SF1; NR5A1).; type: functional
cells [4] = type: functional, cell-based
[5] = target: Nuclear receptor subfamily 5 group A member 2 (Homo sapiens, UniProt O00482); type: functional, cell-based;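 also: HEK293T cells transfected with LRH-1 and a StAR promoter luciferase reporter; potency for inhibitors that lower LRH-1 driven reporter light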
cells [6] = type: functional, cell-based; remark: listed apart in the source
[7] = target: T3, Heat shock factor protein 1 (Mus musculus, UniProt P38532); test: enhancement of HSF1-driven luciferase signal – cell-based, NIH3T3, luminescence, dose retest, confirmation (AID 435004); type: functional;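 also: stress induced by proteasome inhibitor MG132 added 30 min after compound; luciferase reporter driven by HSF1 response element in NIH3T3 cells; actives raise luminescence as potentiators of the MG132 stress response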
T3 sequence (P38532 whole entry): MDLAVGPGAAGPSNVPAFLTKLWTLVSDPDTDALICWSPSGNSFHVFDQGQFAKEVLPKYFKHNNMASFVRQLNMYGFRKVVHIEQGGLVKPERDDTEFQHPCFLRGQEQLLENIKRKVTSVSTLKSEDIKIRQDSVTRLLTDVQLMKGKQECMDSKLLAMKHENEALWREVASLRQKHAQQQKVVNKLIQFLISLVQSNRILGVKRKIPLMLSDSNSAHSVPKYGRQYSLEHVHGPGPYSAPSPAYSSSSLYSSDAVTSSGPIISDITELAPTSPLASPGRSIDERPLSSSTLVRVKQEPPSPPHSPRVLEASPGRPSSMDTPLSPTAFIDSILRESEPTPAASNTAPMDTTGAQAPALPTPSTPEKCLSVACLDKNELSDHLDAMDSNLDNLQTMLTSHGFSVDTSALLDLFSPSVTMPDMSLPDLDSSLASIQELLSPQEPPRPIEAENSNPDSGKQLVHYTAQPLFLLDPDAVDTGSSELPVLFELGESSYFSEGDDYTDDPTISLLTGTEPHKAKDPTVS

[8] = viability loss in HeLa cells – cytotoxicity control for MgcRacGAP inhibitor project, dose response (AID 624300); type: functional
[9] = target: T4, Rac GTPase-activating protein 1 (Homo sapiens, UniProt Q9H0H5); test: blockers of MgcRacGAP-driven Rac1 GTP hydrolysis – biochemical, ADP Hunter fluorescence, primary and confirmatory, confirmation (AID 624330); type: functional
T4 sequence (Q9H0H5 whole entry): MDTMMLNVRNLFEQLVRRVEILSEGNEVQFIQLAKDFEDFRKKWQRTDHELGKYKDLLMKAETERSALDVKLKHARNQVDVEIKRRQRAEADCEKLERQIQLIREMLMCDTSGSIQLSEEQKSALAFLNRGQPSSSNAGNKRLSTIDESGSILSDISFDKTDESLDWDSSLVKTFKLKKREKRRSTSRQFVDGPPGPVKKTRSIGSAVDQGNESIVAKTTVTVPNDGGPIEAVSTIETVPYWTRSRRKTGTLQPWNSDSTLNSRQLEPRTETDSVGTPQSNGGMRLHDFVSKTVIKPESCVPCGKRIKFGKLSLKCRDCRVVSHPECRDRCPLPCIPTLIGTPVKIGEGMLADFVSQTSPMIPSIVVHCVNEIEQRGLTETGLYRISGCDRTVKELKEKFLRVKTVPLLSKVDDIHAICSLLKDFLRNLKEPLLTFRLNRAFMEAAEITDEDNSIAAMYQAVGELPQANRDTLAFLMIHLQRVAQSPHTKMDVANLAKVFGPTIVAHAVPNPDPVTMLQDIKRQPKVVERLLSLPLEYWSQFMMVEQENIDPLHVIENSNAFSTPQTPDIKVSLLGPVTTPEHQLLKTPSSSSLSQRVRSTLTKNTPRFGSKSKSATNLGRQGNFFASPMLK

[10] = alpha-synuclein stem-loop luciferase translation blockers – H4 neuroglioma cells, luminescence, confirmation (AID 1988); type: functional, cell-based
[11] = general mammalian cell viability loss – inhibitor set, cherry-pick, set 2, cytotoxicity control for miR-122 modulator project, dose response (AID 720697); type: functional, cell-based
[12] = luciferase reporter signal suppression in cells – H4 neuroglioma cells, luminescence, dose response (AID 1990); type: functional, cell-based
[13] = Luminescence Cell-Based Dose Response HTS to Identify Inhibitors of 5'UTR Stem-Loop Driven Prion Protein mRNA Translation in H4 Neuroglioblastoma Cells. [Related pubchem assays: 1827 (Project Summary), 1813 (Primary HTS)]; type: functional
[14] = activation of miR-122 Renilla sensor silencing – cell-based, Huh7 psiCHECK-miR122, Renilla luciferase, cherry-picked, dose response (AID 651956); type: functional;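 also: huh7 hepatoma cells stably carrying a psiCHECK-2 miR-122 sensor plasmid; renilla luciferase signal reporting endogenous miR-122 activity after 48 h compound exposure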
[15] = target: T5, Tyrosine-protein phosphatase non-receptor type 5 (Homo sapiens, UniProt P54829); test: PTPN5 enzyme inhibition – biochemical, fluorescence intensity, uHTS hits, confirmation (AID 602372); type: functional; settings: read-out: IC50_Mean
T5 sequence (P54829 whole entry): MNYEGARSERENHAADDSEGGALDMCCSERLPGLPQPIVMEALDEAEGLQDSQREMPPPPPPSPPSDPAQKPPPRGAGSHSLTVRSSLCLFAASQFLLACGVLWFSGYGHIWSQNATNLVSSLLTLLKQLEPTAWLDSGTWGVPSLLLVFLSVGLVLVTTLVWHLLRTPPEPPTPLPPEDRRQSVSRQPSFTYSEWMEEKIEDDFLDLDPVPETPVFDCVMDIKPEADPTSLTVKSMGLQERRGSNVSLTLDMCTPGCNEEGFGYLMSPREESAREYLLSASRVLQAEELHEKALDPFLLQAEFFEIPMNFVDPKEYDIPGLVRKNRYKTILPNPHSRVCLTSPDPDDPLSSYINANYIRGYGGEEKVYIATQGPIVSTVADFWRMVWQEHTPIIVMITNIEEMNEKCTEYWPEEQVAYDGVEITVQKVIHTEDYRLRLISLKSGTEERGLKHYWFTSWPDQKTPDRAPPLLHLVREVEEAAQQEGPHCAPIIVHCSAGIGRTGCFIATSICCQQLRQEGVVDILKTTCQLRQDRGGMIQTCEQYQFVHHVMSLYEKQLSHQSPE

[16] = target: Dual specificity protein phosphatase 3 (Homo sapiens, UniProt P51452); test: VHR phosphatase inhibition, dose response, selectivity assay for STEP inhibitor project, biochemical (AID 602374); type: functional; settings: read-out: IC50_Mean
[17] = target: T6, Tyrosine-protein phosphatase non-receptor type 11 (Homo sapiens, UniProt Q06124); test: PTPN11 enzyme inhibitors – biochemical, selectivity assay for STEP inhibitor project, dose response (AID 602367); type: functional; settings: read-out: IC50_Mean
T6 sequence (Q06124 whole entry): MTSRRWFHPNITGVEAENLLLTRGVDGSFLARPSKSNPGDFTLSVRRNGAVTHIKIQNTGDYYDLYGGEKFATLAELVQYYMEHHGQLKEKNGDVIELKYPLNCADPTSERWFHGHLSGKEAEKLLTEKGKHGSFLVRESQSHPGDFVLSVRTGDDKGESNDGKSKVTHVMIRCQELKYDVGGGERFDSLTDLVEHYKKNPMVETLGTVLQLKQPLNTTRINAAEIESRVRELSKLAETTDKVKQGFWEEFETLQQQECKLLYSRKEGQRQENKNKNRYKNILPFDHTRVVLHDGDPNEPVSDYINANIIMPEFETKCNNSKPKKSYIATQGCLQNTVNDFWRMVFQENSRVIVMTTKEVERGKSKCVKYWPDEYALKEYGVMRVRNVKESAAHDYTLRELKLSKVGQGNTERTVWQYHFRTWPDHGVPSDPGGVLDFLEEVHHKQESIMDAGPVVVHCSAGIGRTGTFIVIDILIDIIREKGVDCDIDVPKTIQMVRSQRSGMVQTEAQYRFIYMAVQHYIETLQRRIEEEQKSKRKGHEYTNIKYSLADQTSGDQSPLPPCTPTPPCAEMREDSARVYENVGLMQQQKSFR

[18] = target: Glucose-6-phosphate 1-dehydrogenase (Homo sapiens, UniProt P11413); test: inhibition of Homo sapiens G6PD, dose series – biochemical, fluorescence, selectivity assay for P. falciparum G6PD inhibitor project, dose response (AID 504792); type: functional
[19] = Trypanosoma cruzi growth suppression in host cells – NIH3T3 host cells, beta-gal luminescence, confirmation (AID 2044); type: functional, cell-based;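 also: intracellular parasites grown in NIH/3T3 mouse fibroblasts as host cells; luminescent beta-galactosidase reporter signal from transgenic T. cruzi replicating inside host cells; inhibitors lower the luminescence signal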
[20] = NIH3T3 cell viability loss – ATP luminescence, mouse fibroblasts, counter-screen, dose response (AID 2010); type: functional, cell-based;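 also: cells exposed to compound for about 90 hours before reading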

Chain of Nuclear receptor subfamily 5 group A member 2 (O00482 whole entry): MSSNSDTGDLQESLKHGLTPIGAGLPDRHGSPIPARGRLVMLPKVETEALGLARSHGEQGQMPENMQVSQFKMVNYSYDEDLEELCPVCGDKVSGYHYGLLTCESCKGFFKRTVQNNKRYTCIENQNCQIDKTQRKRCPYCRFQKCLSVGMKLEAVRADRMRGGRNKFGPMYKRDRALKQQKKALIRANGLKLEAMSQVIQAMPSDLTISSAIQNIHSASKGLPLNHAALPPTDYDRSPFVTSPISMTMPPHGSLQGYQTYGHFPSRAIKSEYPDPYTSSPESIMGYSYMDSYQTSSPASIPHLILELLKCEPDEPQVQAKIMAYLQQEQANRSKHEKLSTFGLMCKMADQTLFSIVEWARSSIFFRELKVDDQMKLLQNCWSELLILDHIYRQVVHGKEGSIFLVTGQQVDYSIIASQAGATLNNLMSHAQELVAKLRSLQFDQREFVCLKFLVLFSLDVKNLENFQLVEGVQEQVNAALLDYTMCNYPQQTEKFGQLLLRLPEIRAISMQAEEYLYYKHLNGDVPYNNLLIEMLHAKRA
Chain of Steroidogenic factor 1 (Q13285 whole entry): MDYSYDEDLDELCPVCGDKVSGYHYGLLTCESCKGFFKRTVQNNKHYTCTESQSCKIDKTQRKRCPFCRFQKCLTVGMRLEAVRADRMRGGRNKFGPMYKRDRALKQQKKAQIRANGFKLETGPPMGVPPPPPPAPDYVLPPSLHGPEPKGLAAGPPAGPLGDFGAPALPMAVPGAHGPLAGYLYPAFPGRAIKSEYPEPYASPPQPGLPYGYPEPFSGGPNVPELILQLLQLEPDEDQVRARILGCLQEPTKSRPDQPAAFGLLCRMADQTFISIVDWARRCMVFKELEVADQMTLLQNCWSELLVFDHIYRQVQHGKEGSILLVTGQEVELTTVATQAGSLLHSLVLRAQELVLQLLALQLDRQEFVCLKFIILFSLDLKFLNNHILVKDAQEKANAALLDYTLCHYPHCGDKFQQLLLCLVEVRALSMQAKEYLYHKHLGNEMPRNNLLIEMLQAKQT
Chain of Glucose-6-phosphate 1-dehydrogenase (P11413 whole entry): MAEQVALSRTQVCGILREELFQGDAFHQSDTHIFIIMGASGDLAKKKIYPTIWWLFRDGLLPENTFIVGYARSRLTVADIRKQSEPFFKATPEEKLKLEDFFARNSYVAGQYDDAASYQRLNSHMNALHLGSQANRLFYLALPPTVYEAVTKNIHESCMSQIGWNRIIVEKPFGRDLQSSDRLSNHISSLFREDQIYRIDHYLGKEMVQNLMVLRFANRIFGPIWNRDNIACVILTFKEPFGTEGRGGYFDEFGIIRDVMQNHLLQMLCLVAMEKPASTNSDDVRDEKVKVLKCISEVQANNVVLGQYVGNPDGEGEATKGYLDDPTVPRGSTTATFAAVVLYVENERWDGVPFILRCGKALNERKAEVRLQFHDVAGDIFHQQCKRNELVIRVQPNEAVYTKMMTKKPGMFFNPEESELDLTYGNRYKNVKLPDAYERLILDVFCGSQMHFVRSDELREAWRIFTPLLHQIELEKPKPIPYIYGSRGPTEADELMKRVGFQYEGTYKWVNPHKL
Chain of Dual specificity protein phosphatase 3 (P51452 whole entry): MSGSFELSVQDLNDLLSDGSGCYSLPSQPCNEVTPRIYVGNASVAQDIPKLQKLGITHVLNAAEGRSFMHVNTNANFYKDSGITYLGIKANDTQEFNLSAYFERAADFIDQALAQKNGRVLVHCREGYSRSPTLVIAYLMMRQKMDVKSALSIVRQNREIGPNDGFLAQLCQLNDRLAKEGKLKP

CCN(CC)CC(=O)Nc1cc(N(C)C)nc2ccccc12
AC50 [1]: 26.9 µM (active)

COc1ccc(OCC(O)CN2CCC(CN3C(=O)c4cccc5cccc(c45)C3=O)CC2)cc1 (centres undefined)
AC50 [2]: 8.15 µM (active)

Cc1ccc2c(c1)c1nc3ccccc3nc1n2CCN1CCOCC1
AC50 [1]: 16.6 µM (active)

O=C1CCCN2N=C(SCC(=O)Nc3ccc(Br)cc3)SC2=N1
IC50 [3]: 35.9 µM (inactive)
IC50 (Steroidogenic factor 1): 12 µM (inactive)
EC50 (cells [4]): > 350 µM (not active)
IC50 [5]: 71.6 µM (inactive)
EC50 (cells [6]): > 350 µM (not active)
EC50 [7]: > 260 µM (inactive)

CC(C)N(CCNCC(O)COc1ccc(C(C)(C)c2ccccc2)cc1)C(C)C (centres undefined)
CC50 [8]: 91.8 µM (active)
IC50 [9]: 204 µM (active)

COc1ccc(C(O)(CC(C)C)C(CN2CCOCC2)c2ccccc2)cc1 (centres undefined)
EC50 [10]: 10.2 µM (active)
AC50 [11]: 4.58 µM (active)
EC50 [12]: 10.6 µM (active)
EC50 [13]: > 120 µM (not active)
AC50 [14]: 49 µM (active)

CCn1c(=O)n(CC)c2cc(N3CCCC3)c(NC(=O)c3cccc(Cl)c3)cc21
CC50 [8]: 100 µM (active)

CCN1CCN(c2nc(Nc3ccc(NC(C)=O)cc3)nc(Nc3ccc(NC(C)=O)cc3)n2)CC1
AC50 [2]: 6.27 µM (active)

CCOc1ccc(NC(=O)CSc2nccn(-c3ccc4c(c3)OCCO4)c2=O)cc1
IC50 [3]: 35.9 µM (inactive)
IC50 (Steroidogenic factor 1): 2.46 µM (active)
IC50 [5]: 2.49 µM (active)

CN1CCN(C(=S)c2ccc(Br)cc2)CC1
IC50 [15]: 30.8 µM (inactive)
IC50 [16]: 1.14 µM (active)
IC50 [17]: 1.51 µM (active)
IC50 [18]: > 80 µM (inactive)

OCCN1CCN(c2ncnc3sc(-c4ccccc4)cc23)CC1
EC50 [19]: 0.721 µM (active)
AC50 [1]: 24.8 µM (active)
EC50 [20]: > 60 µM (not active)

Cn1cc(Cl)c(C(=O)OCC(=O)Nc2ccc(S(N)(=O)=O)cc2)n1
IC50 [3]: 35.9 µM (inactive)
IC50 (Steroidogenic factor 1): 1.11 µM (active)
IC50 [5]: 0.45 µM (active)

C[C@@H]1CN([C@H](C)CO)C(=O)c2cc(-c3cncnc3)cnc2O[C@H]1CN(C)Cc1ccc(Oc2ccccc2)cc1
AC50 [14]: 25.7 µM (active)

Cc1cc(-c2ccccc2)nc(N/N=C/c2ccc(O)cc2)n1
CC50 [8]: 87 µM (active)
IC50 [9]: 18.2 µM (active)
